# Assay results: patent US10167283B2, “β-lactamase inhibitors and uses thereof” (priority 2015, dated 2019)
# Counter-ions that a name gives are not always drawn. Like-named read-outs stand apart in the source and are kept apart here.
# Legend:
# [1] = Pharmacokinetics in SD rats (iv); type: in vivo, SD rat; details: male, plasma; for half-life / clearance: SD, rat, iv, 1 mg/kg; for clearance: read-out: Cl—obs (converted); for Vd / AUC(0-t): SD rat, iv 1 mg/kg; for Vd: apparent volume of distribution, read-out: Vss—obs; for AUC(0-t): area under the curve 0→t
# Protocol: Experimental Example 1: Pharmacokinetics Experiments of the Compound of the Present Invention in Rats Test animals: 3 male SD rats, bodyweight 200-250 g for each animal. Test samples were administrated via intravenous push (iv), dosage of administration was 1 mg/kg, volume of administration was 2 mL/kg. Collecting time points: iv: after administration 0.083 […]. At each time point, about 100 μL of whole blood was sampled via caudal vein, added to K2EDTA anti-coagulative tube, centrifuged in a refrigerated centrifuge under 8000 rpm for 6 min to separate plasma, and the plasma was stored in -80° C. refrigerator. Plasma (20 μL) was taken and placed in a 96-well deep-well plate, and internal standard solution (300 μL) was added, subjected to vortex for 5 min, then centrifuged under 12000 rpm for 5 min, and then supernatant (200 μL) was taken and subjected to vortex for 3 min; to be analyzed by LC-MS/MS. Plasma (30 μL) was taken and placed in 1.5 mL EP tube, and internal standard solution (300 μL) was added, subjected to vortex for 5 min, then centrifuged under 12000 rpm for 5 min, and then supernatant (200 μL) was taken and subjected to vortex for 3 min; to be analyzed by LC-MS/MS. Plasma (30 μL) was taken and placed in a 96-well deep-well plate, and internal standard solution (200 μL) was added, subjected to vortex for 5 min, then centrifuged under 4000 rpm for 20 min, and then supernatant (100 μL) was taken and water (100 μL) was added, and subjected to vortex homogeneously; to be analyzed by LC-MS/MS.
# AmpC = molecular target: T1, AmpC (UniProt P05364); test: β-lactamase inhibition, Nitrocefin hydrolysis; type: biochemical; details: Nitrocefin 0.1 mM
# T1 construct: The concentration of purchased β-lactamases mother liquor was 1 mg/mL, and the mother liquor was dissolved in 50% glycerol
# Protocol: (§1) Nitrocefin, a kind of cephalosporin antibiotics, is sensitive to most of β-lactamases, and changes in color after being hydrolyzed. The hydrolysis rate of Nitrocefin was measured by real-time recording corresponding absorbance of reaction system. β-Lactamase inhibitors could inhibit hydrolysis of the enzymes to Nitrocefin, and reduce hydrolysis rate. By measuring reaction rates in the same reaction system under different inhibitor concentrations, the IC50 (half maximal inhibitory concentration) values of inhibitors were calculated.
# (§2) Nitrocefin was dissolved in DMSO to form a solution with concentration of 2 mM, which was sub-packaged and stored at −20° C. The concentration of purchased β-lactamases mother liquor was 1 mg/mL, and the mother liquor was dissolved in 50% glycerol. A part of mother liquor was taken and diluted by 1000 times in reaction solution, sub-packaged and stored at ˜20° C.
# (§3) The compounds to be tested were dissolved in DMSO to form a mother liquor with concentration of 10 mM. If not used that day, the mother liquor was stored at −20° C. Its test final concentrations were: 100 μM, 25 μM, 6.25 μM, 1.563 μM, 390.6 nM, 97.66 nM, 24.41 nM, 6.10 nM, 1.53 nM, 0.381 nM, 0.095 nM.
# KPC-2 = molecular target: T2, KPC-2 (Klebsiella pneumoniae, UniProt Q9F663); test: β-lactamase inhibition, Nitrocefin hydrolysis; type: biochemical
# T2 construct: purchased
# T2 sequence (Q9F663 25-293, looked up, species assumed): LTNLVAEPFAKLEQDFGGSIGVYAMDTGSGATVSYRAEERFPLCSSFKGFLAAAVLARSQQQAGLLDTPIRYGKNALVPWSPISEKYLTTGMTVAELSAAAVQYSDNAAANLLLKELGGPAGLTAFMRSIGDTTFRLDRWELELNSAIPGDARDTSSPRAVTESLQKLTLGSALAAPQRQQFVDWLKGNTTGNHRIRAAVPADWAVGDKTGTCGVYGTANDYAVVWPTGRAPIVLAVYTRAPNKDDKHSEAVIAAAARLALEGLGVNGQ
# Protocol: as §1, §2, §3
# TEM-1 = molecular target: T3, TEM-1 (Escherichia coli, UniProt P62593); test: β-lactamase inhibition, Nitrocefin hydrolysis; type: biochemical; details: Nitrocefin 0.1 mM
# T3 construct: purchased
# T3 sequence (P62593 24-286 limits assumed): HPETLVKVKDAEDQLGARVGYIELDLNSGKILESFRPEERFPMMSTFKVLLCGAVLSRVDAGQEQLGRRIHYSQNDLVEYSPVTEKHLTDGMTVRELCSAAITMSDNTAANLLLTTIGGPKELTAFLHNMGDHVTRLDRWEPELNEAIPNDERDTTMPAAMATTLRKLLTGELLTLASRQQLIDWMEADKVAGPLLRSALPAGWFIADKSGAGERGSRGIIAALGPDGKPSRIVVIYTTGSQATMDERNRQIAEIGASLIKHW
# Protocol: as §1, §2, §3
# OXA-10 = molecular target: T4, OXA-10 (Pseudomonas aeruginosa, UniProt P14489); test: β-lactamase inhibition, Nitrocefin hydrolysis; type: biochemical; details: Experiment 3; enzyme 10 nM, Nitrocefin 0.1 mM; read-out: IC50 Type D OXA-10
# T4 construct: purchased
# T4 sequence (P14489 20-266, species assumed): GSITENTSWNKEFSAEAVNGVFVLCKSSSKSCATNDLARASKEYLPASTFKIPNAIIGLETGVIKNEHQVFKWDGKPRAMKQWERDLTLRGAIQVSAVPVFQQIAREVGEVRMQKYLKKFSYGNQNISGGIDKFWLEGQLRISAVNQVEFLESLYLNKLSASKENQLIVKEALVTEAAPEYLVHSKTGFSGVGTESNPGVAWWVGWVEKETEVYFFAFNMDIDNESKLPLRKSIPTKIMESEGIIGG
# Protocol: as §1, §2, §3
# [2] = system: Enterobacter cloacae BAA-2341 (KPC); test: In vitro antibacterial activity, agar dilution MIC; type: cell-based; details: BAA2341; Table 2; BAA-2341 Enterobacter cloacae, KPC; read-out: MIC
# Excerpt: (§4) Experimental strains: all experimental standard bacterial strains for enzyme production were purchased from ATCC, and the clinically separated CRE strain was purchased from Southwest Hospital of the Third Military Medical University.
# (§5) Experimental Method: Agar dilution method, referring to M100-S23: Performance Standards for Antimicrobial Susceptibility Testing: Twenty-Third Informational Supplement (Clinical And Laboratory Standards Institute, 2013). Minimal inhibitory concentration (MIC, μg/mL) was calculated.
# [3] = system: Enterobacter hormaechei BAA-2082 (KPC); test: In vitro antibacterial activity, agar dilution MIC; type: cell-based; details: BAA2082; Table 2; BAA-2082 Enterobacter hormaechei, KPC; read-out: MIC
# Excerpt: as §4, §5
# [4] = system: Escherichia coli BAA-2452 (NDM-1); test: In vitro antibacterial activity, agar dilution MIC; type: cell-based; details: BAA2452, Table 2, BAA-2452 Escherichia coli, NDM-1, read-out: MIC
# Excerpt: as §4, §5
# [5] = system: Escherichia coli BAA-2523 (OXA-48); test: In vitro antibacterial activity, agar dilution MIC; type: cell-based; details: BAA2523, Table 2, BAA-2523 Escherichia coli, OXA-48, read-out: MIC
# Excerpt: as §4, §5
# [6] = system: Klebsiella oxytoca ATCC-51983 (SHV-5); test: In vitro antibacterial activity, agar dilution MIC; type: cell-based; details: ATCC51983; Table 2; ATCC-51983 Klebsiella oxytoca, SHV-5; read-out: MIC
# Excerpt: as §4, §5
# [7] = system: Klebsiella pneumoniae BAA-1900 (KPC); test: In vitro antibacterial activity, agar dilution MIC; type: cell-based; details: BAA1900, Table 2, BAA-1900 Klebsiella pneumoniae, KPC, read-out: MIC
# Excerpt: as §4, §5
# [8] = system: Klebsiella pneumoniae BAA-2146 (NDM-1); test: In vitro antibacterial activity, agar dilution MIC; type: cell-based; details: BAA2146, Table 2, BAA-2146 Klebsiella pneumoniae, NDM-1, read-out: MIC
# Excerpt: as §4, §5
# [9] = system: Klebsiella pneumoniae BAA-2524 (OXA-48); test: In vitro antibacterial activity, agar dilution MIC; type: cell-based; details: BAA2524; Table 2; BAA-2524 Klebsiella pneumoniae, OXA-48; read-out: MIC
# Excerpt: as §4, §5
# [10] = system: Citrobacter freundii 7520cfr-167 (NDM, OXA-10, ESBLs); test: In vitro antibacterial activity on clinically separated CRE strain, agar dilution MIC; type: cell-based; details: Table 3, 7520cfr-167 Citrobacter freundii
# Excerpt: as §4, §5
# [11] = system: Citrobacter freundii 7521cfr-169 (NDM, ESBLs, AmpC); test: as above; type: cell-based; details: Table 3, 7521cfr-169 Citrobacter freundii
# Excerpt: as §4, §5
# [12] = system: Enterobacter cloacae 7494ecl-295 (NDM, ESBLs, AmpC); test: as above; type: cell-based; details: Table 3, 7494ecl-295 Enterobacter cloacae
# Excerpt: as §4, §5
# [13] = system: Enterobacter cloacae 7495ecl-296 (IMP, ESBLs, AmpC); test: as above; type: cell-based; details: Table 3, 7495ecl-296 Enterobacter cloacae
# Excerpt: as §4, §5
# [14] = system: Enterobacter cloacae 7498ecl-299 (ESBLs, AmpC); test: as above; type: cell-based; details: Table 3, 7498ecl-299 Enterobacter cloacae
# Excerpt: as §4, §5
# [15] = system: Enterobacter cloacae 7513ecl-314 (AmpC); test: as above; type: cell-based; details: Table 3, 7513ecl-314 Enterobacter cloacae
# Excerpt: as §4, §5
# [16] = system: Escherichia coli 7438eco-639 (NDM, ESBLs); test: as above; type: cell-based; details: Table 3, 7438eco-639 Escherichia coli
# Excerpt: as §4, §5
# [17] = system: Klebsiella pneumoniae 7450kpn-597 (KPC, ESBLs); test: as above; type: cell-based; details: Table 3, 7450kpn-597 Klebsiella pneumoniae
# Excerpt: as §4, §5
# [18] = system: Klebsiella pneumoniae 7463kpn-610 (ESBLs); test: as above; type: cell-based; details: Table 3, 7463kpn-610 Klebsiella pneumoniae
# Excerpt: as §4, §5
# [19] = system: Klebsiella pneumoniae 7484kpn-631 (IMP, ESBLs); test: as above; type: cell-based; details: Table 3, 7484kpn-631 Klebsiella pneumoniae
# Excerpt: as §4, §5
# CTX-M-1 = molecular target: T5, CTX-M-1 (Escherichia coli, UniProt P28585); test: β-lactamase inhibition, Nitrocefin hydrolysis; type: biochemical; details: Experiment 2; enzyme 0.2 nM, Nitrocefin 0.1 mM
# T5 construct: purchased
# T5 sequence (P28585 29-291): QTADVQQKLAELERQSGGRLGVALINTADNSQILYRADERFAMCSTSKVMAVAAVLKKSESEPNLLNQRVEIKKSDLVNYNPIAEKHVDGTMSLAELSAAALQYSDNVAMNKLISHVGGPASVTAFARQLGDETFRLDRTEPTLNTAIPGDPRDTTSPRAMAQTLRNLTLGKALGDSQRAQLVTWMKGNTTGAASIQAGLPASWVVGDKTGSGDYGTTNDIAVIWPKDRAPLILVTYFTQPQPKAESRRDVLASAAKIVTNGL
# Protocol: as §1, §2, §3
# [20] = read-out: IC50 Type C AmpC, Experiment 1, enzyme 0.4 nM
# [21] = Experiment 1, Nitrocefin 0.1 mM, read-out: IC50 Type A KPC-2
# [22] = Experiment 1, enzyme 0.25 nM, read-out: IC50 ESBLs type TEM-1
structure (smiles),measurement,setting,value
"O=C(NC1CC2(CCNCC2)C1)[C@@H]1CC[C@@H]2CN1C(=O)N2OS(=O)(=O)O [Compound 1, (2S,5R)-2-(7-azaspiro[3.5]nonan-2-ylcarbamoyl)-7-oxo-1,6-diazabicyclo[3.2.1]octan-6-yl hydrogen sulfate]",half-life,[1],1.01 h
same,clearance,[1],7.77 mL/min/kg
same,Vd,[1],0.294 L/kg
same,AUC(0-t),[1],2330 ng·h/mL
same,IC50,AmpC; [20],22.9 nM
same,IC50,KPC-2; [21],81.7 nM
same,IC50,TEM-1; [22],28.2 nM
"O=C(NC1CC2CCC(C1)N2)[C@@H]1CC[C@@H]2CN1C(=O)N2OS(=O)(=O)O (stereo partly drawn) [Compound 4, (2S,5R)-2-((8-azabicyclo[3.2.1]octane-3-yl)carbamoyl)-7-oxo-1,6-diazabicyclo[3.2.1]octan-6-yl hydrogen sulfate]",half-life,[1],2.04 h
same,clearance,[1],12.1 mL/min/kg
same,Vd,[1],0.348 L/kg
same,AUC(0-t),[1],1390 ng·h/mL
same,IC50,KPC-2,23.1 nM
same,IC50,TEM-1; [22],20.5 nM
"O=C(NC1C2CCC1CNC2)[C@@H]1CC[C@@H]2CN1C(=O)N2OS(=O)(=O)O (stereo partly drawn) [Compound 5, (2S,5R)-2-((3-azabicyclo[3.2.1]octan-8-yl)carbamoyl)-7-oxo-1,6-diazabicyclo[3.2.1]octan-6-yl hydrogen sulfate]",IC50,AmpC; [20],84.1 nM
same,IC50,KPC-2; [21],27.4 nM
same,IC50,TEM-1; [22],66.5 nM
"CN1CC2(CC(NC(=O)[C@@H]3CC[C@@H]4CN3C(=O)N4OS(=O)(=O)O)C2)C1 [Compound 6 sodium salt, sodium (2S,5R)-2-((2-methyl-2-azaspiro[3.3]heptan-6-yl)carbamoyl)-7-oxo-1,6-diazabicyclo[3.2.1]octan-6-yl sulfate]",half-life,[1],0.25 h
same,clearance,[1],9.08 mL/min/kg
same,Vd,[1],0.219 L/kg
same,AUC(0-t),[1],1840 ng·h/mL
same,IC50,OXA-10,21700 nM
"CN1CC2(CC(NC(=O)[C@@H]3CC[C@@H]4CN3C(=O)N4OS(=O)(=O)O)C2)C1 [Compound 6, sodium (2S,5R)-2-((2-methyl-2-azaspiro[3.3]heptan-6-yl)carbamoyl)-7-oxo-1,6-diazabicyclo[3.2.1]octan-6-yl hydrogen sulfate]",MIC,[2],2 µg/mL
same,MIC,[3],2 µg/mL
same,MIC,[4],2 µg/mL
same,MIC,[5],1 µg/mL
same,MIC,[6],4 µg/mL
same,MIC,[7],2 µg/mL
same,MIC,[8],4 µg/mL
same,MIC,[9],2 µg/mL
same,MIC,[10],2 µg/mL
same,MIC,[11],2 µg/mL
same,MIC,[12],2 µg/mL
same,MIC,[13],2 µg/mL
same,MIC,[14],2 µg/mL
same,MIC,[15],2 µg/mL
same,MIC,[16],2 µg/mL
same,MIC,[17],2 µg/mL
same,MIC,[18],2 µg/mL
same,MIC,[19],4 µg/mL
same,IC50,"AmpC; read-out: IC50 AmpC, Experiment 2, enzyme 1.6 nM",17.7 nM
same,IC50,CTX-M-1,40.8 nM
same,IC50,"KPC-2; Experiment 2, enzyme 1.28 nM, Nitrocefin 0.1 mM, read-out: IC50 KPC-2",42.3 nM
same,IC50,"TEM-1; Experiment 2, enzyme 1 nM, read-out: IC50 TEM-1",30.1 nM
